Test results from patent US4450269A, “Mono-5-substituted-3-chloro-4H-1,2,6-thiadiazin-4-one antifungal agents” (FMC Corporation, priority 1980, dated 1984).
Like-named read-outs stand apart in the source and are kept apart here.

What was measured:
Phytophthora infestans = assay type: cell-based; settings: PI, 48 hours
Alternaria solani = assay: Mycelial growth test; assay type: cell-based; settings: AS; for inhibition at 5 ppm / inhibition at 10 ppm / inhibition at 20 ppm / inhibition at 40 ppm: Alternaria solani, 72 h, read-out: Percent Fungus Growth Inhibition; for Percent Fungus Growth Inhibition: 72 hours

Compound | Spore Germination Rating (Phytophthora infestans; 1.0 ppm) | Spore Germination Rating (Phytophthora infestans; 2.5 ppm) | Spore Germination Rating (Phytophthora infestans; 10 ppm) | Spore Germination Rating (Phytophthora infestans; 40 ppm) | inhibition at 5 ppm (Alternaria solani; 5 ppm) | inhibition at 10 ppm (Alternaria solani; 10 ppm) | inhibition at 20 ppm (Alternaria solani; 20 ppm) | inhibition at 40 ppm (Alternaria solani; 40 ppm) | Percent Fungus Growth Inhibition (Alternaria solani; 5 ppm) | Percent Fungus Growth Inhibition (Alternaria solani; 10 ppm) | Percent Fungus Growth Inhibition (Alternaria solani; 20 ppm) | Percent Fungus Growth Inhibition (Alternaria solani; 40 ppm)
CC(=O)Nc1ccc(Oc2nsnc(Cl)c2=O)cc1 [Compound 8, 5-(4-acetylaminophenoxy)-3-chloro-4H--1,2,6-thiadiazin-4-one] | 4 (80-100) | 4 (80-100) | 0 (0-10) | 0 (0-10) | 38% | 41% | 69% | 86% | – | – | – | –
Cc1cc(Cl)c(Oc2nsnc(Cl)c2=O)cc1C [Compound 58, 3-chloro-5-[(2-chloro-4,5-dimethyl)phenoxy]-4H--1,2,6-thiadiazin-4-one] | 3 (60-80) | 2 (40-60) | 0 (0-10) | 0 (0-10) | 48% | 48% | 43% | 43% | – | – | – | –
N#CCc1ccc(Oc2nsnc(Cl)c2=O)cc1 [Compound 46, 3-chloro-5-[(4-cyanomethyl)-phenoxy]4H--1,2,6-thiadiazin-4-one] | 4 (80-100) | 1 (10-40) | 1 (10-40) | 0 (0-10) | 71% | 81% | 100% | 100% | – | – | – | –
O=c1c(Cl)nsnc1Oc1ccc(Cl)cc1 [Compound 12, 3-chloro-5-(4-chlorophenoxy)-4H--1,2,6-thiadiazin-4-one] | 1 (10-40) | 1 (10-40) | 1 (10-40) | 0 (0-10) | 31% | 31% | 63% | 100% | – | – | – | –
CNC(=O)Nc1ccc(Oc2nsnc(Cl)c2=O)cc1 [Compound 28, 3-chloro-5-[4-(3-methylureido)-phenoxy]-4H--1,2,6-thiadiazin-4-one] | 4 (80-100) | 4 (80-100) | 4 (80-100) | 2 (40-60) | 40% | 47% | 50% | 70% | – | – | – | –
CC(=O)c1cccc(Oc2nsnc(Cl)c2=O)c1 [Compound 48, 3-(3-acetylphenoxy)-5-chloro-4H--1,2,6-thiadiazin-4-one] | 0 (0-10) | 0 (0-10) | 0 (0-10) | 0 (0-10) | 88% | 92% | 100% | 100% | – | – | – | –
O=c1c(Cl)nsnc1Oc1ccccc1 [Compound 2, 3-chloro-5-phenoxy-4H--1,2,6-thiadiazin-4-one] | 0 (0-10) | 1 (10-40) | 1 (10-40) | 0 (0-10) | 75% | 100% | 100% | 100% | – | – | – | –
Cc1ccccc1Oc1nsnc(Cl)c1=O [Compound 22, 3-chloro-5-(2-methylphenoxy)-4H--1,2,6-thiadiazin-4-one] | 0 (0-10) | 0 (0-10) | 0 (0-10) | 0 (0-10) | 63% | 88% | 100% | 100% | – | – | – | –
CS(=O)(=O)c1ccc(Oc2nsnc(Cl)c2=O)cc1 [Compound 41, 3-chloro-5-[(4-methylsulfonyl)phenoxy]-4H--1,2,6-thiadiazin-4-one] | 4 (80-100) | 2 (40-60) | 0 (0-10) | 0 (0-10) | 54% | 58% | 58% | 100% | – | – | – | –
CCOC(=O)c1ccc(Oc2nsnc(Cl)c2=O)cc1 [Compound 7, 3-chloro-5-(4-ethoxycarbonylphenoxy)-4H--1,2,6-thiadiazin-4-one] | 0 (0-10) | 0 (0-10) | 0 (0-10) | 0 (0-10) | 54% | 75% | 75% | 92% | – | – | – | –
O=C(Nc1ccccc1)Nc1ccc(Oc2nsnc(Cl)c2=O)cc1 [Compound 29, 3-chloro-5-[4-(3-phenylureido)-phenoxy]-4H--1,2,6-thiadiazin-4-one] | 4 (80-100) | 4 (80-100) | 4 (80-100) | 3 (60-80) | 47% | 30% | 37% | 47% | – | – | – | –
O=c1c(Cl)nsnc1Oc1ccc(F)cc1 [Compound 11, 3-chloro-5-(4-fluorophenoxy)-4H--1,2,6-thiadiazin-4-one] | 4 (80-100) | 0 (0-10) | 0 (0-10) | 0 (0-10) | 63% | 83% | 100% | 100% | – | – | – | –
CCCCOc1ccc(Oc2nsnc(Cl)c2=O)cc1 [Compound 6, 3-chloro-5-(4-n-butoxyphenoxy)-4H--1,2,6-thiadiazin-4-one] | 2 (40-60) | 0 (0-10) | 0 (0-10) | 0 (0-10) | 8% | 0% | 13% | 21% | – | – | – | –
Cc1ccc(Oc2nsnc(Cl)c2=O)c(Br)c1 [Compound 57, 3-[(2-bromo-4-methyl)-phenoxy]-5-chloro-4H--1,2,6-thiadiazin-4-one] | 4 (80-100) | 1 (10-40) | 0 (0-10) | 0 (0-10) | 71% | 90% | 90% | 90% | – | – | – | –
Cc1cc(Cl)ccc1Oc1nsnc(Cl)c1=O [Compound 55, 3-chloro-5-(4-chloro-2-methylphenoxy)-4H--1,2,6-thiadiazin-4-one] | 1 (10-40) | 0 (0-10) | 0 (0-10) | 0 (0-10) | 100% | 100% | 100% | 100% | – | – | – | –
CC(=O)c1ccc(Oc2nsnc(Cl)c2=O)cc1 [Compound 47, 3-(4-acetylphenoxy)-5-chloro-4H--1,2,6-thiadiazin-4-one] | 0 (0-10) | 0 (0-10) | 0 (0-10) | 0 (0-10) | 92% | 92% | 92% | 88% | – | – | – | –
Cc1cccc(Oc2nsnc(Cl)c2=O)c1 [Compound 21, 3-chloro-5-(3-methylphenoxy)-4H--1,2,6-thiadiazin-4-one] | 4 (80-100) | 1 (10-40) | 0 (0-10) | 0 (0-10) | 75% | 63% | 75% | 100% | – | – | – | –
O=C(Nc1ccccc1)Oc1ccc(Oc2nsnc(Cl)c2=O)cc1 [Compound 37, 3-chloro-5-[4-(phenylaminocarbonyloxy)phenoxy]-4H-1,2,6,-thiadiazin-4-one] | 4 (80-100) | 4 (80-100) | 4 (80-100) | 4 (80-100) | 46% | 50% | 50% | 54% | – | – | – | –
3-chloro-5-(bromophenoxy)-4H-1,2,6-thiadiazin-4-one [Compound 33] | 0 (0-10) | 0 (0-10) | 0 (0-10) | 0 (0-10) | – | – | – | – | 100% | 100% | 100% | 100%
Cc1cc(Oc2nsnc(Cl)c2=O)ccc1Cl [Compound 54, 3-chloro-5-(4-chloro-3-methylphenoxy)-4H--1,2,6-thiadiazin-4-one] | 1 (10-40) | 0 (0-10) | 0 (0-10) | 0 (0-10) | 70% | 100% | 100% | 100% | – | – | – | –
Cc1cccc(C)c1Oc1nsnc(Cl)c1=O [Compound 24, 3-chloro-5-(2,6-dimethylphenoxy)-4H--1,2,6-thiadiazin-4-one] | 4 (80-100) | 2 (40-60) | 1 (10-40) | 0 (0-10) | 100% | 88% | 100% | 100% | – | – | – | –
CC(=O)c1ccccc1Oc1nsnc(Cl)c1=O [Compound 49, 3-(2-acetylphenoxy)-5-chloro-4H--1,2,6-thiadiazin-4-one] | 3 (60-80) | 1 (10-40) | 1 (10-40) | 1 (10-40) | 100% | 100% | 100% | 100% | – | – | – | –
O=c1c(Cl)nsnc1Oc1cccc(Cl)c1Cl [Compound 19, 3-chloro-5-(2,3-dichlorophenoxy)-4H--1,2,6-thiadiazin-4-one] | 3 (60-80) | 0 (0-10) | 0 (0-10) | 0 (0-10) | 62% | 62% | 90% | 100% | – | – | – | –
O=c1c(Cl)nsnc1Oc1ccc(Cl)cc1Cl [Compound 17, 3-chloro-5-(2,4-dichlorophenoxy)-4H--1,2,6-thiadiazin-4-one] | 3 (60-80) | 0 (0-10) | 0 (0-10) | 0 (0-10) | 79% | 72% | 93% | 100% | – | – | – | –
O=c1c(Cl)nsnc1Oc1cc(Cl)cc(Cl)c1 [Compound 20, 3-chloro-5-(3,5-dichlorophenoxy)-4H--1,2,6-thiadiazin-4-one] | 0 (0-10) | 0 (0-10) | 0 (0-10) | 0 (0-10) | 59% | 59% | 59% | 83% | – | – | – | –
Nc1ccc(Oc2nsnc(Cl)c2=O)cc1 [Compound 26, 5-(4-aminophenoxy)-3-chloro-4H--1,2,6-thiadiazin-4-one] | 4 (80-100) | 4 (80-100) | 4 (80-100) | 2 (40-60) | 60% | 80% | 100% | 100% | – | – | – | –
